Source: patent US5935805A, “Measurement of bilirubin albumin binding” (Research Corporation Technologies, Inc., priority 1997, dated 1999)
Where “and” joins values, the source holds several entries; their conditions need not be identical. Equal entries are not always repeated. Where two headings read alike, the source gives them in different places.

Experiments:
horseradish peroxidase = assay: Standardization of catalyzing reagent: peroxidase catalyzed oxidation of bilirubin by peroxide in the absence of albumin; assay type: biochemical; conditions: about 21° C.
Experimental: This is done by determining the Kp, i.e., the first order rate constant for the oxidation of bilirubin by the oxidizing reagent (usually peroxide) in the presence of the catalyzing reagent. The Kp is determined by standard techniques known in the art, utilizing known concentrations of unbound unconjugated bilirubin. […] If B is the unconjugated unoxidized bilirubin concentration at time t, P is the concentration of the catalyzing reagent e.g., peroxidase, Bo, and Bt are the initial unconjugated bilirubin concentration and the unconjugated bilirubin concentration at time t, respectively, and the concentration of the oxidizing reagent e.g., peroxide is not rate limiting, then at concentrations of bilirubin that are well below the Km for peroxidase catalyzed peroxide oxidation of bilirubin, (for HRP, this value is .congruent.70 uMol at 37° C.), then
dB/dt=-Kp ·P·B EQ.3
Integrating Equation 3 between the limits t=o and t=t, wherein t is the predetermined time referred to hereinabove provides [formula] Thus, in accordance with EQ.4, the value of Kp is determined if a known concentration of peroxidase is reacted with an excess amount of peroxide with a known amount of unbound unconjugated bilirubin.

albumin [1] = biological target: T1, albumin (Homo sapiens, UniProt P02768); assay: Unbound bilirubin in bilirubin-defatted albumin solution with sulfisoxazole, peroxidase method of the instant invention at 1:1.8 dilution; assay type: binding; conditions: 15 mg/dL sulfisoxazole; bilirubin 20 mg/dL, defatted albumin 3.0 g/dL; dilution 1:1.8; mean and SD of 3 replicates
Description: (§1) A 0.1 cm path cuvette was employed to allow direct spectral analysis of the unbound bilirubin at the 1:1.8 dilution.

albumin [2] = biological target: T1, albumin; assay: Unbound bilirubin in bilirubin-defatted albumin solution with sulfisoxazole, Jacobsen and Wennberg method at 1:41.8 dilution; assay type: binding; conditions: 15 mg/dL sulfisoxazole; bilirubin 20 mg/dL, defatted albumin 3.0 g/dL; dilution 1:41.8; mean and SD of 3 replicates
Experimental: as §1
The Jacobsen and Wennberg method was performed as above using a 1 cm path cuvette. The […] technique was performed by stopping the reaction after five minutes with 1.0 ml of diazo-A and then adding 1.0 ml of 90% methanol.

newborns = conditions: displaces bilirubin from albumin, blood level 15 mg/dL reported; cited from earlier work
albumin [3] = biological target: T1, albumin; conditions: lowest established value; cited from earlier work
albumin [4] = biological target: T1, albumin; assay: Oxidation of bilirubin-14C/defatted albumin by peroxidase and peroxide, Sephadex G25 column radioactivity; assay type: biochemical; conditions: for Bilirubin: 50 μg/mL peroxidase, 1000 μmol/L ethyl hydrogen peroxide; for Eluate counts/min: albumin fraction from Sephadex G25; for Bilirubin (% time 0): 278 µM
Experimental: A bilirubin-^14 C/defatted albumin solution (molar ratio 0.42) containing 278 μmol/L bilirubin and 60,839 counts per minute, 50 μg/mL peroxidase, and 1000 μmol/L ethyl hydrogen peroxide were allowed to react for 8 minutes. At various times (0 to 8 minutes), 100 μl of reaction mix was removed and added to 10 μl of 100 mmol/L Na2 S to stop the reaction. The bilirubin concentration was calculated from the absorption at 460 nm after dilution to 1.0 ml with 0.055M Somensen's buffer, and the entire diluted reaction mixture was then placed on a Sephadex G25 0.5×5 cm (diameter×length) column prepared according to the manufacturer's instructions. The albumin fraction was then eluted with buffer. The bilirubin remaining and the radioactivity of the eluate were measured at each time interval to determine whether the oxidation products remained bound to albumin during the reaction and therefore passed through the Sephadex column with the albumin.

albumin [5] = biological target: T1, albumin; assay: Bilirubin-albumin binding isotherm in minimally diluted newborn plasma titrated with bilirubin; set-up: Plasma from a partial exchange transfusion performed in a term newborn with polycythemia; from tissue; host or cells: plasma of a term newborn (partial exchange transfusion); conditions: dilution 1:1.8, two-site model, non-linear regression
Description: Plasma from a partial exchange transfusion performed in a term newborn with polycythemia was titrated with bilirubin and the unconjugated unbound bilirubin determined by the present method to assess the bilirubin-albuminbinding isotherm in minimally diluted plasma. Non-linear regression used to determine the equilibrium binding constants, and a two-site model with interaction between sites best fit the binding isotherm.

T1 sequence (P02768 25-609): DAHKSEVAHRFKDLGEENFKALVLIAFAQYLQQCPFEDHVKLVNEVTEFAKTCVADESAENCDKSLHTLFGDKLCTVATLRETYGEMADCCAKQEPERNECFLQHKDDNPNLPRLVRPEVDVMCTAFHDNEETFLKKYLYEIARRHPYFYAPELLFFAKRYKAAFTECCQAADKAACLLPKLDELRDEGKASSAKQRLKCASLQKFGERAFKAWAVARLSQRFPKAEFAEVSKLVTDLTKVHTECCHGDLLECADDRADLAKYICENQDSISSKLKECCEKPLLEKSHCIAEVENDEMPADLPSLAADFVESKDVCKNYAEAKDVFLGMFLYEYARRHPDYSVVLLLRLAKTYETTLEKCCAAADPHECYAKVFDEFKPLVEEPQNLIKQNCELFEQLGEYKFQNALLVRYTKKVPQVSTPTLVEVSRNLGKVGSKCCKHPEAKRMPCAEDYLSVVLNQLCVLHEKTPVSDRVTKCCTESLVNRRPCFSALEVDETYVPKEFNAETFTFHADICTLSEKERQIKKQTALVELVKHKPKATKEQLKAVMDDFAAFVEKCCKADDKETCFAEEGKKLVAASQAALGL

horseradish peroxidase
Kp, first order rate constant for catalyzed oxidation of bilirubin (horseradish peroxidase): about eight

Cc1noc(NS(=O)(=O)c2ccc(N)cc2)c1C [sulfisoxazole]
CONCENTRATION OF UNBOUND BILIRUBIN + Sulfa (albumin [1]): 0.285 ± 0.03 μm
CONCENTRATION OF UNBOUND BILIRUBIN + Sulfa (albumin [2]): 0.092 ± .003 μm
Bilirubin toxicity when given to newborns (newborns): development of bilirubin toxicity

C=CC1=C(C)/C(=C/c2[nH]c(Cc3[nH]c(/C=C4\NC(=O)C(C)=C4C=C)c(C)c3CCC(=O)O)c(CCC(=O)O)c2C)NC1=O [bilirubin, bilirubin IXa]
First order dissociation rate constant k-1 of the bilirubin-albumin complex, lowest value (albumin [3]): about 0.4 /min
Eluate counts/min (% time 0) (albumin [4]; reaction time 0 min): 100 % time 0
Bilirubin (albumin [4]; reaction time 0 min): 4.86 µmol/L and 4.93 µmol/L
Eluate counts/min (albumin [4]; reaction time 0 min): 57,675 counts/min and 57,692 counts/min
Eluate counts/min (% time 0) (albumin [4]; reaction time 4 min): 97 % time 0 and 92 % time 0
Bilirubin (albumin [4]; reaction time 4 min): 3.07 µmol/L and 3.36 µmol/L
Bilirubin (% time 0) (albumin [4]; reaction time 4 min, 4 min): 63 % time 0 and 68 % time 0
Eluate counts/min (albumin [4]; reaction time 4 min): 55,797 counts/min and 53,070 counts/min
Eluate counts/min (% time 0) (albumin [4]; reaction time 6 min): 87 % time 0 and 82 % time 0
Bilirubin (albumin [4]; reaction time 6 min): 2.70 µmol/L and 2.60 µmol/L
Bilirubin (% time 0) (albumin [4]; reaction time 6 min, 6 min): 55 % time 0 and 53 % time 0
Eluate counts/min (albumin [4]; reaction time 6 min): 50,119 counts/min and 47,500 counts/min
Eluate counts/min (% time 0) (albumin [4]; reaction time 8 min): 87 % time 0 and 86 % time 0
Bilirubin (albumin [4]; reaction time 8 min): 2.14 µmol/L and 2.24 µmol/L
Eluate counts/min (albumin [4]; reaction time 8 min): 50,174 counts/min and 49,405 counts/min
Kd (albumin [5]; read-out: Equilibrium dissociation constant, 1:1 bilirubin/albumin species): 59 nM
Kd (albumin [5]; read-out: Equilibrium dissociation constant, 2:1 bilirubin/albumin species): 30.3 nM
